Earlier results as cited in patent US20130165526A1, “TOPICAL TREATMENT WITH DAPSONE IN G6PD-DEFICIENT PATIENTS” (ALLERGAN, INC., priority 2007, published 2013).

Test system: P. acnes
Conditions: Godowski et al., 2000

For Nc1ccc(S(=O)(=O)c2ccc(N)cc2)cc1 [Dapsone, bis(4-aminophenyl)sulfone], the Minimum inhibitory concentration is listed as “about 1 microgram per milliliter”.
